Consider two compounds from patent publication US20090170131A1, “Agents for Imaging Apoptosis” (priority 2006, published 2009).

The target of one series is T1, caspase-3 (Homo sapiens, UniProt P42574).
T1 construct: In DLD1 colon carcinoma cells in vitro; endogenous in cells; host or cells: DLD1 colon carcinoma cells
T1 sequence (P42574 29-175 limits assumed): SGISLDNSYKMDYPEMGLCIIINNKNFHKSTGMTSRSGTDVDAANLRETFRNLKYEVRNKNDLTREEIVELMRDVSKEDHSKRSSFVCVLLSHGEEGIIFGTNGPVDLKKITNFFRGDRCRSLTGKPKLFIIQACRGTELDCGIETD
T1 sequence (P42574 176-277 limits assumed): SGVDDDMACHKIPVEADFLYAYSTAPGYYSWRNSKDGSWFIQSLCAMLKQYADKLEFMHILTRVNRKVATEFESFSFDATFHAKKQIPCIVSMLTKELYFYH
The series can be described thus: AMC-M808 cleavage in DLD1 colon carcinoma cells after TRAIL treatment, time-lapse confocal fluorescence. The series is classed as cell-based. The procedure: FIG. 1 is an image of AMC fluorescence from an imaging agent in DLD1 colon carcinoma cells before (A) and after 2 hour treatment with TNF-related apoptosis-inducing ligand (TRAIL) (B).
DLD1 cells were seeded in an 8-chamber glass slide at a density of 2×10^4 cells/cm^2 in DMEM containing 10% FBS and allowed to attach overnight. Fluorescent images of the plated cells were acquired using an Olympus FV1000 confocal microscope equipped with an onstage incubation chamber. TRAIL was added to the cells in a 0.5 mL volume of fresh medium at a concentration of 50 ng/mL. Time-lapse microscopy was then immediately initiated with confocal images acquired at a rate of one image every 10 minutes. The cells were maintained at 37° C. in 5% CO2 for the duration of the experiment. An excitation wavelength of 405 nm and an emission wavelength range of 425 to 475 nm were used to detect the cleaved product of AMC-M808. Fluorescence intensity over time was measured in a representative region-of-interest in each 10-minute image acquired to determine the rate of caspase activity.

In a further series the test system is caspases. The following applies: cell cultures containing 23% apoptotic cells; cited from earlier work.

Consider `COc1ccccc1CC(=O)NC(C(=O)NC(CC(=O)OCc1ccccc1)C(=O)Nc1ccc2c(C)cc(=O)oc2c1)C(C)C` (stereo not shown) [Compound 3], for which, at caspase-3 (DLD1 cells treated with TRAIL), the “cleavage by caspase-3 after induction of apoptosis” value is on record as “cleaved by caspase-3”. On caspase-3 (DLD1 cells, after TRAIL 50 ng/mL, first hour, region of interest in 10 minute frames), the “rate of increase in fluorescence intensity due to AMC-M808 cleavage” value came to 5.5 min⁻¹. Moreover, at caspase-3 (DLD1 colon carcinoma cells in vitro), the cell permeability result was “cell permeable”.

Regarding “radioiodinated Z-Val-Ala-DL-Asp(O-methyl)-fluoromethyl ketone [[^131I]IZ-VAD-fmk]”, the “uptake in cell cultures” value in the series on caspases was “some increase in uptake”.
